From PubChem BioAssay AID256 (DTP/NCI, 2004)
“And” between values parts separate entries of the source, which are not always exact repeats. Identical values can stand only once. Toxic doses and inconclusive results are not listed. The calls were made as follows: active = survival T/C of 150% or more; inactive = T/C below 125% in these data.

Tested on: CD2F1 mice, L1210 leukemia ip, survival T/C
Test: NCI In Vivo Anticancer Drug Screen. Data for tumor model L1210 Leukemia (intraperitoneal) in CD2F1 (CDF1) mice
Conditions: endpoint: mean survival time, higher = longer survival
Method in brief: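 Implant tumor; dose compound or vehicle; measure endpoint in both groups; report treated divided by control.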

[1] = dose: 100.0 mg/kg/injection, schedule: Q01DX009 (ip), vehicle: saline
[2] = dose: 25.0 mg/kg/injection, schedule: Q04DX002 (ip), vehicle: saline with Tween-80
[3] = dose: 50.0 mg/kg/injection, schedule: Q04DX002 (ip), vehicle: saline with Tween-80
[4] = dose: 100.0 mg/kg/injection, schedule: Q01DX001 (ip), vehicle: saline with Tween-80
[5] = dose: 100.0 mg/kg/injection, schedule: Q04DX002 (ip), vehicle: saline with Tween-80
[6] = dose: 100.0 mg/kg/injection, schedule: Q01DX009 (ip), vehicle: saline with Tween-80
[7] = dose: 100.0 mg/kg/injection, schedule: Q04DX003 (ip), vehicle: saline with Tween-80
[8] = dose: 200.0 mg/kg/injection, schedule: Q01DX009 (ip), vehicle: saline with Tween-80
[9] = dose: 200.0 mg/kg/injection, schedule: Q04DX003 (ip), vehicle: saline with Tween-80
[10] = dose: 400.0 mg/kg/injection, schedule: Q01DX009 (ip), vehicle: saline with Tween-80
[11] = dose: 400.0 mg/kg/injection, schedule: Q04DX003 (ip), vehicle: saline with Tween-80
[12] = dose: 100.0 mg/kg/injection, schedule: Q04DX003 (ip), vehicle: saline
[13] = dose: 200.0 mg/kg/injection, schedule: Q04DX003 (ip), vehicle: saline
[14] = dose: 400.0 mg/kg/injection, schedule: Q04DX003 (ip), vehicle: saline
[15] = dose: 50.0 mg/kg/injection, schedule: Q01DX009 (ip), vehicle: other
[16] = dose: 100.0 mg/kg/injection, schedule: Q01DX009 (ip), vehicle: other
[17] = dose: 200.0 mg/kg/injection, schedule: Q04DX002 (ip), vehicle: saline with Tween-80
[18] = dose: 400.0 mg/kg/injection, schedule: Q04DX002 (ip), vehicle: saline with Tween-80
[19] = dose: 12.5 mg/kg/injection, schedule: Q01DX009 (ip), vehicle: water
[20] = dose: 25.0 mg/kg/injection, schedule: Q01DX009 (ip), vehicle: water
[21] = dose: 50.0 mg/kg/injection, schedule: Q01DX009 (ip), vehicle: water
[22] = dose: 100.0 mg/kg/injection, schedule: Q01DX009 (ip), vehicle: water
[23] = dose: 200.0 mg/kg/injection, schedule: Q01DX009 (ip), vehicle: water
[24] = dose: 200.0 mg/kg/injection, schedule: Q01DX009 (ip), vehicle: other

Measured: T/C

CC(C)(C)NC(=O)NCCCN1CCOCC1
inactive: [1] 102 % of control | dose: 200.0 mg/kg/injection, schedule: Q01DX009 (ip), vehicle: saline 98 % of control | dose: 400.0 mg/kg/injection, schedule: Q01DX009 (ip), vehicle: saline 91 % of control

N#Cc1nc(-c2ccco2)c(-c2ccco2)nc1C#N
inactive: [2] 102 % of control | [3] 90 % of control | [4] 96 % of control | [5] 90 % of control

Nc1cc2[nH]cnc2c(=O)[nH]1
inactive: dose: 12.5 mg/kg/injection, schedule: Q01DX009 (ip), vehicle: suspension in saline 105 % of control | dose: 25.0 mg/kg/injection, schedule: Q01DX005 (ip), vehicle: saline 97 % of control and 111 % of control | dose: 25.0 mg/kg/injection, schedule: Q01DX009 (ip), vehicle: suspension in saline 113 % of control | dose: 50.0 mg/kg/injection, schedule: Q01DX005 (ip), vehicle: saline 114 % of control and 119 % of control | dose: 400.0 mg/kg/injection, schedule: Q01DX009 (ip), vehicle: suspension in saline 90 % of control

NC(CS)=NC1CN2CCC1CC2 (centres undefined)
inactive: dose: 50.0 mg/kg/injection, schedule: Q04DX002 (ip), vehicle: saline 115 % of control | dose: 100.0 mg/kg/injection, schedule: Q04DX002 (ip), vehicle: saline 101 % of control

CCOC(=O)C(C(C)=O)C(c1ccc(OC)cc1)C(C(C)=O)C(=O)OCC (centres undefined)
inactive: [6] 94 % of control | [7] 100 % of control | [8] 97 % of control | [9] 99 % of control | [10] 92 % of control | [11] 106 % of control

CC(C)(O)C#CC(C)(C)O
inactive: [12] 101 % of control | [13] 101 % of control | [14] 97 % of control

CCC(=O)OC1(c2ccccc2)CCN(CCCc2ccccc2Cl)CC1
inactive: dose: 25.0 mg/kg/injection, schedule: Q01DX001 (ip), vehicle: saline with Tween-80 108 % of control | [2] 95 % of control | dose: 50.0 mg/kg/injection, schedule: Q01DX001 (ip), vehicle: saline with Tween-80 100 % of control | [3] 98 % of control | [4] 96 % of control and 98 % of control | [5] 95 % of control

CC1CN1CC(O)C(O)CN1CC1C (centres undefined)
inactive: dose: 2.5 mg/kg/injection, schedule: Q01DX009 (ip), vehicle: saline 115 % of control

COc1ccc2nc3cc(Cl)ccc3c(Nc3ccc(NC(C)=O)cc3)c2n1
inactive: dose: 25.0 mg/kg/injection, schedule: Q01DX009 (ip), vehicle: other 92 % of control | [15] 86 % of control | [16] 94 % of control

CCCCC(CSC#N)SC#N (centres undefined)
inactive: dose: 6.25 mg/kg/injection, schedule: Q04DX002 (ip), vehicle: saline with Tween-80 92 % of control | dose: 12.5 mg/kg/injection, schedule: Q04DX002 (ip), vehicle: saline with Tween-80 88 % of control

Cc1[nH]c2ccc(N=CN(C)C)cc2c1C
inactive: [2] 111 % of control | [3] 111 % of control

O=C(O)C(O)C(O)C(O)CO (centres undefined)
inactive: [12] 95 % of control | [13] 105 % of control | [14] 97 % of control

C1=CC(c2ccccc2)C(c2ccccc2)C(c2ccccc2)=C1 (centres undefined)
inactive: [4] 95 % of control | dose: 200.0 mg/kg/injection, schedule: Q01DX001 (ip), vehicle: saline with Tween-80 87 % of control | dose: 400.0 mg/kg/injection, schedule: Q01DX001 (ip), vehicle: saline with Tween-80 87 % of control

COC1=C(Br)C(O)C2(C=C1Br)CC(C(=O)NCCCCNC(=O)C1=NOC3(C=C(Br)C(OC)=C(Br)C3O)C1)=NO2 (centres undefined)
inactive: [3] 94 % of control | [5] 94 % of control | [17] 97 % of control | [18] 86 % of control

CC(=O)CN(C(C)=O)c1ccccc1
inactive: [5] 105 % of control | [17] 97 % of control | [18] 109 % of control

O=C(NCCO)NCCO
inactive: dose: 100.0 mg/kg/injection, schedule: Q01DX009 (ip), vehicle: saline sonified 110 % of control | dose: 200.0 mg/kg/injection, schedule: Q01DX009 (ip), vehicle: saline sonified 104 % of control | dose: 400.0 mg/kg/injection, schedule: Q01DX009 (ip), vehicle: saline sonified 110 % of control

COc1cc2c(cc1OC)C1=NN(c3ccccc3)C(=O)C1CC2 (centres undefined)
inactive: [5] 103 % of control | [17] 95 % of control | [18] 95 % of control

OCC1CCC(CO)CC1 (centres undefined)
inactive: dose: 6.25 mg/kg/injection, schedule: Q01DX009 (ip), vehicle: Klucel (hydroxypropylcellulose) (HPC) 100 % of control | dose: 12.5 mg/kg/injection, schedule: Q01DX009 (ip), vehicle: Klucel (hydroxypropylcellulose) (HPC) 95 % of control | dose: 25.0 mg/kg/injection, schedule: Q01DX009 (ip), vehicle: Klucel (hydroxypropylcellulose) (HPC) 103 % of control

CC(=O)N1CCC2(CC1)SSC1(CCN(C(C)=O)CC1)S2
inactive: dose: 5.0 mg/kg/injection, schedule: Q01DX009 (ip), vehicle: saline with Tween-80 102 % of control | dose: 5.0 mg/kg/injection, schedule: Q04DX003 (ip), vehicle: saline with Tween-80 92 % of control | dose: 10.0 mg/kg/injection, schedule: Q01DX009 (ip), vehicle: saline with Tween-80 103 % of control | dose: 10.0 mg/kg/injection, schedule: Q04DX003 (ip), vehicle: saline with Tween-80 91 % of control | dose: 20.0 mg/kg/injection, schedule: Q01DX009 (ip), vehicle: saline with Tween-80 100 % of control | dose: 20.0 mg/kg/injection, schedule: Q04DX003 (ip), vehicle: saline with Tween-80 96 % of control

Cc1ccc2[nH]c(=O)oc(=O)c2c1
inactive: [7] 104 % of control | [9] 98 % of control | [11] 106 % of control

NC(C(=O)O)C(O)c1cnc[nH]1 (centres undefined)
inactive: [19] 96 % of control | [20] 100 % of control | [21] 100 % of control | [22] 104 % of control | [23] 102 % of control

COC(=O)CC1C2CCc3cc(OC)ccc3C2CCC1(C)C(=O)OC (centres undefined)
inactive: [6] 97 % of control | [8] 101 % of control | [10] 94 % of control

CC(C)(C)c1cc(CN2CCCC(O)C2)c(O)c(-c2ccccc2)c1 (centres undefined)
inactive: dose: 50.0 mg/kg/injection, schedule: Q01DX009 (ip), vehicle: saline 107 % of control | [1] 104 % of control

C=CCOc1c(C(=O)OCC)cnc2c1cnn2CC
inactive: dose: 100.0 mg/kg/injection, schedule: Q04DX003 (ip), vehicle: Klucel (hydroxypropylcellulose) (HPC) 108 % of control | dose: 200.0 mg/kg/injection, schedule: Q04DX003 (ip), vehicle: Klucel (hydroxypropylcellulose) (HPC) 108 % of control | dose: 400.0 mg/kg/injection, schedule: Q04DX003 (ip), vehicle: Klucel (hydroxypropylcellulose) (HPC) 101 % of control

CCc1cccc(CC)c1NC(N)=S
inactive: [2] 108 % of control | [3] 97 % of control | [5] 101 % of control

CC(=O)OC1COC(n2cnc3c(N)ncnc32)C(OC(C)=O)C1OC(C)=O (centres undefined)
inactive: dose: 100.0 mg/kg/injection, schedule: Q01DX001 (ip), vehicle: saline 108 % of control | dose: 200.0 mg/kg/injection, schedule: Q01DX001 (ip), vehicle: saline 101 % of control | dose: 400.0 mg/kg/injection, schedule: Q01DX001 (ip), vehicle: saline 90 % of control

CCOC(=O)CCC(NC(=O)c1ccc(N(C)S(=O)(=O)c2ccc(C)cc2)c(Cl)c1Cl)C(=O)OCC (centres undefined)
inactive: [7] 105 % of control | [9] 91 % of control | [11] 94 % of control

CCCCCCCCCCCSSCCCCCCCCCCC
inactive: [16] 101 % of control | [24] 100 % of control | dose: 400.0 mg/kg/injection, schedule: Q01DX009 (ip), vehicle: other 111 % of control

Cc1ccc(CCCC(=O)O)c(C)c1
inactive: [7] 104 % of control | [9] 93 % of control | [11] 98 % of control

COc1ccc(C2OC(=O)c3cccnc32)cc1OC (centres undefined)
inactive: dose: 12.5 mg/kg/injection, schedule: Q01DX009 (ip), vehicle: other 90 % of control | [15] 87 % of control | [24] 88 % of control

CC1=C(c2ccccc2)OS(=O)(=O)NC1=O
inactive: [19] 93 % of control | [20] 91 % of control | [21] 93 % of control | [22] 93 % of control | [23] 88 % of control
